Assay results: article PMC6359144 (International Journal of Molecular Sciences, 2019)
“Also recorded” adds a separate entry of the source. Read-outs that look alike come from different tables or passages of the source.

Assays:
[1] = system: 518A2 melanoma cells; experiment: MTT assay, 518A2 melanoma cells; type: cell-based, human; conditions: for IC50: Homo sapiens, MTT, mean ± SD of four experiments
Procedure: (§1) HT-29 (ACC-299), HCT-116 (ACC-581) and DLD-1 (ACC-278) colon carcinoma, MCF-7 (ACC-115) breast carcinoma, KB-V1 (ACC-149), 518A2 (Department of Radiotherapy and Radiobiology, University Hospital Vienna) melanoma and Ea.Hy926 (ATCC no. CRL-2922) HUVEC derived endothelial hybrid cells line were grown in Dulbecco’s Modified Eagle Medium (DMEM; Biochrom), high glucose supplemented with 10% (v/v) fetal bovine serum (FBS; Biochrom.) and 1% (v/v) Antibiotic-Antimycotic solution (anti-anti; Thermo Scientific). HDFa human dermal fibroblasts (ATCC: PCS-201-012™) were grown in DMEM supplemented with 10% FBS, 1% anti-anti and 2 mM glutamine. The cells were incubated at 37 °C, 5% CO2, 95% humidified atmosphere. By repeated addition of topotecan or vinblastine at the maximum tolerated dose to the cell medium of MCF-7 and KB-V1 cells, the cells were rendered multidrug-resistant, indicated as MCF-7^Topo and KB-V1^Vbl, respectively. They were serially passaged following trypsinization by using 0.05% trypsin/0.02% EDTA (Biochrom). Mycoplasma contamination was routinely monitored, and only mycoplasma–free cultures were used.
(§2) MTT [3-(4,5-dimethylthiazol-2-yl)-2,5-diphenyltetrazolium bromide] (ABCR) was used to determine the cytotoxicity of test compounds as previously described. Briefly, HDFa human dermal fibroblasts and Ea.Hy926 endothelial hybrid cells (both 1 × 10^5 cells/mL, 100 µL/well), 518A2 melanoma, KB-V1^Vbl cervix carcinoma, MCF-7^Topo breast carcinoma, HT-29, DLD-1 and HCT-116 colon carcinoma (all 5 × 10^4 cells/mL, 100 µL/well) were grown in 96-well culture plates for 24 h. Then, various concentrations of the test compounds were added and the cells were incubated for 24-72 h at 37 °C. After adding 12.5 µL of a 0.5% MTT solution in PBS (final concentration 0.05%) to cell medium, microplates were incubated for 2 h and subsequently swiftly turned to discard the medium. The precipitate of formazan crystals was then dissolved in a 10% solution of SDS in DMSO containing 0.6% acetic acid. To ensure complete dissolution of formazan, microplates were incubated for at least 4 h at 37 °C. Finally, the absorbance at λ = 570 nm (formazan) and 630 nm (background) was measured using a microplate reader (Tecan F200). All experiments were carried out in quadruplicate and the percentage of viable cells was calculated as the mean ± SD with controls set to 100%. Selected graphs of MTT assays can be found in the Supporting Information (Figure S8).

[2] = system: KB-V1^Vbl cervix carcinoma cells; experiment: MTT assay, KB-V1^Vbl cervix carcinoma cells; type: cell-based; conditions: Homo sapiens, read-out: IC50 KB-V1^Vbl (72 h)
Procedure: as §1, §2

[3] = system: Ea.Hy926 endothelial hybrid cells; experiment: MTT assay, Ea.Hy926 endothelial hybrid cells; type: cell-based; conditions: Homo sapiens, EA.hy 926, read-out: IC50 Ea.Hy926 (72 h)
Procedure: as §1, §2

[4] = biological target: T1, purified pig brain tubulin (Sus scrofa, UniProt P02550+P02554); experiment: Turbidimetric cell-free tubulin polymerization assay; type: biochemical; conditions: 10 µM, 340 nm
T1 construct: using purified pig brain tubulin; from tissue; host or cells: pig brain
Procedure: An amount of 50 µL of Brinkley’s buffer 80 (BRB80) supplemented with 20% glycerol and 3 mM GTP was given in a black 96-well half-area plate with clear bottom. Then, test compounds 4d–f (final concentration: 5 µM, or 10 µM) or vehicle (DMSO) were added. After adding 50 µL tubulin in BRB80 (10 mg/mL) was pipetted in the wells and immediately placed in a pre-heated microplate reader (Tecan). The polymerization was determined turbidimetrically at 37 °C by measuring the absorption at 340 nm for 120 min in intervals of 5 min. Values were normally distributed for each group (Shapiro–Wilk test, p > 0.05) and there was homogeneity of variance (Levene’s test, p > 0.05).

[5] = system: 518A2 melanoma cells; experiment: DCFH-DA assay of intracellular ROS; type: cell-based, human; conditions: 10 µM, 1 h, vehicle treated controls set to 100%
Excerpt: Gosch 2,3, Alexandra […] Rothemund 1, Thomas Mueller 4, […] Schobert 1, Bernhard Biersack 1,*, Andrea Volkamer 3 and Michael […] 2,* 1 Department of Chemistry, University of […], Germany; florian1.schmitt@uni-[…].rothemund@uni -[…].schobert@uni - bayreuth.de (R.S.) 2 Institute of Physiology, Charité-Universitätsmedizin Berlin, Charitéplatz 1, 10117 Berlin, Germany; […].), alexandra.[…].) 3 In Silico Toxicology Group, Institute of Physiology, Charité-Universitätsmedizin Berlin, Charitéplatz 1, 10117 Berlin, Germany; […] 4 Internal Medicine IV, University Hospital […], Germany; thomas.mueller@medizin.uni-[…] * Correspondence: bernhard.biersack@yahoo.com (B.B.); michael.hoepfner@charite.de (M.H.); Tel.: +49-921- 55- 2673 (B.B.); Tel: +49-030-450-528 -515(M.H.); Table of content Material and Methods ... S1 DCFH-DA assay. ... S1 Immuofluorescence staining of acetylated alpha-tubulin ... S2 Wound healing assay ... S2 Results ... S3 Effect on the microtubule cytoskeleton ... S3 Effect on the intracellular ROS levels ... S3 Effect on the acetylation of alpha-tubulin ... S3 Effect on migratory activity ... S5 Effect on mouse weight ... S6 Graphs of MTT assays ... S7 S1 Material and Methods DCFH-DA assay. The assay was performed as previously described. […] 100 μL/well) were grown in a black 96-well plate for 24 h. Then, the cell medium was exchanged for […] After […] and vehicle (DMSO) in serum-free DMEM for 1 h at 37 °C. Then, the cells were washed twice with 100 μL PBS and subsequently placed in a microplate reader (TECAN). The DCF-fluorescence (λex = 485 nm, λem = 535 nm) as a measure of ROS production was determined and that of vehicle treated controls set to 100%. Values exceeding 100% indicate a drug-induced ROS generation. The values of six independent assays were depicted as the means ± SD. There were no outliers and the data fulfilled variance homogeneity (Levene's test, p > 0.05).

[6] = system: p21, p27, cyclin D1 in 518A2 melanoma cells; experiment: Western blot of cell cycle regulatory proteins; type: cell-based, human; conditions: 24 h; for effect on p21 expression: 4d […]–4 µM, SAHA 5 µM
Procedure: After harvesting and lysing of the cells, western blotting was performed as described before. For subsequent analysis, the protein-loaded membranes were incubated with antibodies directed against p21 (Abcam ab109199), p27 ([…]), cyclin D1 (Cell Signaling 29225) and GADPH (Santa Cruz sc25778) in 1:1000 dilutions. After incubation with horseradish peroxidase-coupled anti-IgG antibodies (1:10,000; Amersham), the blot was developed using the Celvin-S developer (Biostep) and the software SnapAndGo 1.8.1.

[7] = 518A2, read-out: IC50 518A2 (72 h), 72 h
[8] = 518A2, 24 h, read-out: IC50 518A2 (24 h)

T1 sequence (P02554 whole entry): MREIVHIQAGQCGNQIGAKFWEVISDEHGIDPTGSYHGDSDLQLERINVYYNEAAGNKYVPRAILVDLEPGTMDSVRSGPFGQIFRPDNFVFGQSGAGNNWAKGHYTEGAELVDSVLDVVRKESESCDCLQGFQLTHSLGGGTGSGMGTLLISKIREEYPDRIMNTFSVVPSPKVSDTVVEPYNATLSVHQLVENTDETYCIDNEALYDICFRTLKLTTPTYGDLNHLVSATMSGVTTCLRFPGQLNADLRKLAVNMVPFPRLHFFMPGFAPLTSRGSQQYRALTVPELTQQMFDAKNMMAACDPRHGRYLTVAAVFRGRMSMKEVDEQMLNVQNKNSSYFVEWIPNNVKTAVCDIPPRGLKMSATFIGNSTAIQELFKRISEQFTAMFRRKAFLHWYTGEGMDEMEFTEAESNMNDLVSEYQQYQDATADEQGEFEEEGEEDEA
T1 sequence (P02550 whole entry): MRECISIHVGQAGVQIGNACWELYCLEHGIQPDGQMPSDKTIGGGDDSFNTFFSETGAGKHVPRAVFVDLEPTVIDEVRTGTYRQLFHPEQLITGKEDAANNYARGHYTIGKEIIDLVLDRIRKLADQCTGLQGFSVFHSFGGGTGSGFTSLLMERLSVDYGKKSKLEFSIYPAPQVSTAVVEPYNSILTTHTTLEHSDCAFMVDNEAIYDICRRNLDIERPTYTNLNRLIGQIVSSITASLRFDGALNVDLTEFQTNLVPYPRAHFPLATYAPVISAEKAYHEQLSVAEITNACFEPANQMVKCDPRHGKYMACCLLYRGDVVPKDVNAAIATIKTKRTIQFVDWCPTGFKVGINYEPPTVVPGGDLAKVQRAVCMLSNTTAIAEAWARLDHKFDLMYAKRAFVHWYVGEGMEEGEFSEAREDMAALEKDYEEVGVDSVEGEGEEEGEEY

Row | SMILES | IC50 [1, 7] [nM] | IC50 [1, 8] [nM] | IC50 [2] [nM] | IC50 [3] [nM] | inhibition of tubulin polymerization [4] | intracellular ROS level [5] | IC50 after 72 h compared with IC50 after 24 h ([1]; 518A2 melanoma cells, fold lower) | effect on p21 expression [6] | effect on cyclin D1 level ([6]; 4d 0.15–4 µM)
1 | COc1ccc(-c2ocnc2-c2cc(Br)c(OC)c(OC)c2)cc1OCCCCC(=O)NO [4e, N-Hydroxy-5-[1-methoxy-4-(4’-(3’’-bromo-4’’,5’’-dimethoxyphenyl)oxazol-5’-yl)-2-phenoxy]pentanamide] | 800 ± 70 | 2400 ± 300 | 2000 ± 300 | 660 ± 10 | merely moderate inhibitory effect | 230 ± 31% | – | – | –
2 | COc1ccc(-c2ocnc2-c2cc(Br)c(OC)c(OC)c2)cc1OCCCC(=O)NO [4d, N-Hydroxy-4-[1-methoxy-4-(4’-(3’’-bromo-4’’,5’’-dimethoxyphenyl)oxazol-5’-yl)-2-phenoxy]butanamide] | 110 ± 10 | 710 ± 50 | 480 ± 60 | 18 ± 4 | inhibited the polymerization of pig brain tubulin nearly completely; also recorded: significant inhibition of tubulin polymerization | 241% ± 17 | about eight-fold | distinctly suppressed p21 expression | increased the level of cyclin D1
3 | COc1ccc(-c2ocnc2-c2cc(Br)c(OC)c(OC)c2)cc1OCCCCCC(=O)NO [4f, N-Hydroxy-6-[1-methoxy-4-(4’-(3’’-bromo-4’’,5’’-dimethoxyphenyl)oxazol-5’-yl)-2-phenoxy]hexanamide] | 6400 ± 400 | 7600 ± 200 | 7100 ± 200 | 410 ± 40 | virtually none | 198 ± 24% | – | upregulated p21 expression in a dose-dependent way | –
